For one data set, the system named is murine splenocytes. In words: two-way mixed lymphocyte reaction (MLR). The data set is classed as cell-based. The settings on record: Mus musculus, Splenocyte, percentage of positive MLR control (no compound); for activity at 0.01 µg/well: 0.01 ug/well; for activity at 0.1 µg/well: 0.1 ug/well; for activity at 1 µg/well: 1 ug/well; for activity at 10 µg/well: 10 ug/well. As for the experimental part: The crude ethanolic extract was tested in the two-way mixed lymphocyte reaction (MLR) and a CV-1 cytotoxicity assay at a 1X concentration of the crude extract, using murine splenocytes. Cellular proliferation was measured using incorporation of ^3 H-thymidine.
The pure compounds were tested for immunosuppressive effects in the MLR assay and for specific cytotoxicity effects in the lymphocyte viability (LCV) assay both using murine splenocytes. […] Responses were reported as a percent of the positive MLR or LCV control. As a general rule, a low MLR value combined with a high LCV value indicates immunosuppressive activity.
^a Twoway murine mixed lymphocyte response. Results are expressed as
percentage of the positive MLR control response (no compound).

Data set [1] is described as follows: lymphocyte viability (LCV) assay. The data set is classed as cell-based, murine. The note with it: mouse, splenocytes, percentage of positive LCV control (no compound). As to the method:
The pure compounds were tested for immunosuppressive effects in the MLR assay and for specific cytotoxicity effects in the lymphocyte viability (LCV) assay both using murine splenocytes. Cellular proliferation was determined using incorporation of ^3 H-thymidine and a modified form of the M. T. T. assay (Mosmann, T. [1983] "Rapid colorimetric assay for cellular growth and survival: Application to proliferation and cytotoxicity assays," J. Immunol. Methods, 65:55-63). Responses were reported as a percent of the positive MLR or LCV control. As a general rule, a low MLR value combined with a high LCV value indicates immunosuppressive activity.
^b Viability (LCV) of lymphocytes as measured by metabolism of M.T.T.
Results are expressed as a percentage of the positive LCV control respons

For the next data set, the system named is P388 leukemia cells. In words: antiproliferative effect against P388 leukemia cells (MTT). Format: cell-based. The settings on record: Mus musculus; murine P388 leukemia cells, 48-h exposure; mean ± S.D., n in parentheses. As to the method: (§1) The crude ethanolic extract and essentially pure compound were tested for toxicity against murine P388 leukemia cells and cells derived from human colon (HT-29) and lung (A549) tumors. P388 cells obtained from Dr. J. Mayo, National Cancer Institute, Bethesda Md., were maintained in Roswell Park Memorial Institute (RPMI) medium 1640 supplemented with 10% horse serum. HT-29 and A-459 human tumor cells were obtained from the American Type Culture Collection (Rockville, Md.) and maintained in RPMI medium 1640 supplemented with 10% fetal bovine serum. All cell lines were cultured in plastic tissue culture flasks and kept in an incubator at 37° C. in humidified air containing 5% CO2. Antibiotic-free stock cultures of P388 cells were subcultured to 10^5 cells/ml by dilution in fresh growth medium at 2 to 3 day intervals. The mean generation time of primary P388 cultures was 14 to 17 hr. HT-29 and A549 cells were subcultured after dissociation with trypsin-EDTA at weekly intervals.
(§2) To assess the antiproliferative effects of agents against P388, HT-29, and A549 cells, 200 μl cultures (96-well tissue culture plates, Nunc, Denmark) were established at 1×10^5 cells/ml (4000 cells/cm^2 for HT-29 and A549) in drug-free medium or medium containing the crude extract at a final dilution of 1:500 of test compound at various concentrations. Solvent for all dilutions was methanol, which was removed from plates under vacuum. All experimental cultures were initiated in medium containing Gentamicin sulfate ([…]; Schering Corporation, Kenilworth, N.J.). After 48-h exposures, P388 cells were enumerated using 3-[4,5-Dimethylthiazol-2-yl]-2,5-diphenyltetrazolium bromide (MTT) as described below (Alley, M. C., et al.[1988] Cancer Res. 48:589).
(§3) To quantitate the effects on cell proliferation, 75 μl of warm growth medium containing 5 mg/ml MTT was added to each well and cultures were returned to the incubator for 90 minutes. To spectrophotometrically quantitate MTT, plates were centrifuged (900×g, 5 minutes), culture fluids removed by aspiration, and 200 μl of acidified isopropanol (2 ml concentrated HCl/liter isopropanol) added per well. The absorbance of the resulting solutions were measured at 570 nm with a plate reader (MR700 Microplate Reader, Dynatech, Laboratories, Chantilly, Va.). […] A linear relationship between tumor cell number and formazan produced was found over the range of cell densities observed in these experiments.

The next data set has as its system A549 lung tumor cells. In words: antiproliferative effect against A549 lung tumor cells (MTT). Format: cell-based. The note with it: human lung tumor cells, mean ± S.D., n in parentheses. As for the experimental part: as §1, §2, §3
The subject of another data set is HT-29 colon tumor cells. Put plainly: antiproliferative effect against HT-29 colon tumor cells (MTT). Format: cell-based. The note with it: human colon tumor cells, mean ± S.D., n in parentheses. As to the method: as §1, §2, §3

Values after ≈ are worked out from the molar mass of the structure shown.

For orientation: viability means a per cent measure of how many cells are alive, often set against a control. A lower viability goes with more harm to the cells. Broadly, the IC50 is the concentration at which inhibition is half-maximal. As to `C#CC(O)C=CCCCCCCCCCC=CCCCCCC` (stereo not drawn) [SP10099], the activity at 0.01 µg/well with murine splenocytes came to 33%. The activity at 0.1 µg/well with murine splenocytes was 0%. Also, in the data set on murine splenocytes, the activity at 1 µg/well is 0%. In the data set on murine splenocytes, this molecule showed an activity at 10 µg/well of 0%. Further, the viability in data set [1] (0.01 ug/well) came to 67%; in data set [1] (0.1 ug/well), 34%; in data set [1] (1 ug/well) it was 13%; in data set [1] (10 ug/well) it was 22%. In addition, the IC50 was 1.23 ± 0.53 µg/mL (≈ 3.86 µM) in the data set with P388 leukemia cells, 1.75 ± 0.06 µg/mL (≈ 5.49 µM) in the data set with A549 lung tumor cells and 1.66 ± 0.15 µg/mL (≈ 5.21 µM) in the data set with HT-29 colon tumor cells.

As to `C#CC(O)C=CCCCCCCCCCCCCCC(C)C` (stereo not drawn) [SP10101], the activity at 0.01 µg/well with murine splenocytes is 21%. The activity at 0.1 µg/well in the data set on murine splenocytes stood at 0%. In addition, in the data set on murine splenocytes, the activity at 1 µg/well was 0%. Also, the viability in data set [1] (0.01 ug/well) worked out at 82%; in data set [1] (0.1 ug/well), 49%; in data set [1] (1 ug/well), 7%; in data set [1] (10 ug/well), 10%. In addition, the IC50 turned out to be 1.44 ± 0.28 µg/mL (≈ 4.7 µM) with P388 leukemia cells, 2.3 ± 0.7 µg/mL (≈ 7.5 µM) with A549 lung tumor cells and 1.06 ± 0.11 µg/mL (≈ 3.46 µM) with HT-29 colon tumor cells.

As to `C#CC(O)C=CCCCCCCCCCCCCCCC` (stereo not drawn) [SP10098], the activity at 0.01 µg/well with murine splenocytes is 24%. Besides, in the data set on murine splenocytes, the activity at 0.1 µg/well was determined as 0%. Also, the activity at 1 µg/well in the data set on murine splenocytes turned out to be 0%. For the same molecule, the activity at 10 µg/well in the data set on murine splenocytes was 0%. Moreover, the viability in data set [1] (0.01 ug/well) was 80%; in data set [1] (0.1 ug/well), 61%; in data set [1] (1 ug/well), 21%; in data set [1] (10 ug/well), 2%. Moreover, the IC50 was 1.21 ± 0.73 µg/mL (≈ 4.14 µM) in the data set on P388 leukemia cells, 1.6 ± 0.1 µg/mL (≈ 5.47 µM) in the data set with A549 lung tumor cells and 1.66 ± 0.47 µg/mL (≈ 5.68 µM) in the data set on HT-29 colon tumor cells.

As for `C#CC(O)C=CCCCCCCCCCCC(C)CCCC` (stereo not drawn) [SP10100], the activity at 0.01 µg/well with murine splenocytes is 21%. Besides, in the data set on murine splenocytes, the activity at 0.1 µg/well amounted to 0%. Further, the activity at 1 µg/well in the data set with murine splenocytes was determined as 0%. In the data set with murine splenocytes, this molecule returned an activity at 10 µg/well of 0%. Moreover, the viability in data set [1] (0.01 ug/well) came out at 78%; in data set [1] (0.1 ug/well) it was 42%; in data set [1] (1 ug/well) it was 12%; in data set [1] (10 ug/well), 8%. The results for the IC50 in the data set with P388 leukemia cells, in the data set on A549 lung tumor cells and in the data set with HT-29 colon tumor cells were 1.58 ± 0.51 µg/mL (≈ 5.15 µM), 1.56 ± 0.06 µg/mL (≈ 5.09 µM) and 0.86 ± 0.06 µg/mL (≈ 2.81 µM), respectively.

`C#CC(O)C=CCCCCCCCCCC=CCCCCC(C)C` (stereo not drawn) [SP10102]: the activity at 0.01 µg/well with murine splenocytes worked out at 20%. Also, the activity at 0.1 µg/well in the data set on murine splenocytes came to 0%. The activity at 1 µg/well in the data set with murine splenocytes was 0%. Moreover, the activity at 10 µg/well in the data set with murine splenocytes was determined as 0%. For the same molecule, the viability in data set [1] (0.01 ug/well) was 67%; in data set [1] (0.1 ug/well), 45%; in data set [1] (1 ug/well), 15%; in data set [1] (10 ug/well), 0%. Moreover, the IC50 amounted to 1.63 ± 0.29 µg/mL (≈ 4.9 µM) with P388 leukemia cells, 2.9 ± 0.34 µg/mL (≈ 8.72 µM) in the data set on A549 lung tumor cells and 1.46 ± 0.06 µg/mL (≈ 4.39 µM) in the data set with HT-29 colon tumor cells.

The values above are taken from patent US5073572A, “Bioactive metabolites from cribrochalina vasculum” (Harbor Branch Oceanographic Institution, Inc., priority 1990, dated 1991).
